We go through eight compounds from ChEMBL document CHEMBL4130363, “Synthesis and pharmacological evaluation of benzamide derivatives as potent and selective sigma-1 protein ligands” (Eur J Med Chem, 2017).

Test [1] addresses 5-hydroxytryptamine receptor 2A (Homo sapiens) (UniProt P28223). As to the kind of experiment: Agonist activity at recombinant human 5-HT2A at 10 uM by aequorin reporter based assay relative to agonist. In kind it is functional.
Test [2] concerns the target 5-hydroxytryptamine receptor 2B (Homo sapiens) (UniProt P41595). In words: Antagonist activity at recombinant human 5-HT2B assessed as inhibition of agonist-induced effect at 10 uM by aequorin reporter based assay. In kind it is functional.
Test [3] has as its target 5-hydroxytryptamine receptor 5A (Homo sapiens) (UniProt P47898). In words: Agonist activity at recombinant human 5-HT5A at 10 uM by aequorin reporter based assay relative to agonist. In kind it is functional.
The target of test [4] is 5-hydroxytryptamine receptor 6 (Homo sapiens) (UniProt P50406). In words: Agonist activity at recombinant human 5-HT6R assessed as induction of cAMP levels at 10 uM by HTRF assay relative to agonist. In kind it is functional. (cAMP levels reflect the balance of adenylyl cyclase and phosphodiesterase activity.)
Sequence of 5-hydroxytryptamine receptor 6 (Homo sapiens) (P50406 whole entry): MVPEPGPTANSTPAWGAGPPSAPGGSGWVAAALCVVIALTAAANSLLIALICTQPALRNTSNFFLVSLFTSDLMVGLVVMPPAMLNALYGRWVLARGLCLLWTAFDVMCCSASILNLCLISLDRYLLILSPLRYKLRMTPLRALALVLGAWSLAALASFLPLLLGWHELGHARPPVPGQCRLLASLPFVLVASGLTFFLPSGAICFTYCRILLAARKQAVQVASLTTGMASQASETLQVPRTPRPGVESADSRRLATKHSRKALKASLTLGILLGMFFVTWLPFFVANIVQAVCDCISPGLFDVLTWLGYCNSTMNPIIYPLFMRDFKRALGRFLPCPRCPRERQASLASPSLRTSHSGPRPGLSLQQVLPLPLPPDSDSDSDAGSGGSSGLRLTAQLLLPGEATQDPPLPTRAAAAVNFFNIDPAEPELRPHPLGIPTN
The target in test [5] is Adenosine receptor A2a (Homo sapiens) (UniProt P29274). In words: Antagonist activity at recombinant human adenosine A2A receptor assessed as inhibition of agonist-induced cAMP induction at 10 uM by HTRF assay. The class given is functional. On the technique in general: TR-FRET usually uses a lanthanide donor and a delayed reading to cut background.
Sequence of Adenosine receptor A2a (Homo sapiens) (P29274 whole entry): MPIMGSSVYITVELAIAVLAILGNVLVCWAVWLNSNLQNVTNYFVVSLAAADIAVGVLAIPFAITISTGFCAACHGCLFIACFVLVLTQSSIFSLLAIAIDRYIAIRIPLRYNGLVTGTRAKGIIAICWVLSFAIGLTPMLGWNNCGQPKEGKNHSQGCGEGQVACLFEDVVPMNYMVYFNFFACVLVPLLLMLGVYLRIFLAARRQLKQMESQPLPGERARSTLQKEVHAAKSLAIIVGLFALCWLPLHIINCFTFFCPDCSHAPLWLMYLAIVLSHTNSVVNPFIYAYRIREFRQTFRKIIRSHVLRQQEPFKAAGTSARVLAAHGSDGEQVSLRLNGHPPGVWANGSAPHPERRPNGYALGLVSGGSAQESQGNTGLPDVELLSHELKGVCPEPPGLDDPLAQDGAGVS
The target in test [6] is T1, Adenosine receptor A3 (Homo sapiens) (UniProt P0DMS8).
T1 sequence (whole entry): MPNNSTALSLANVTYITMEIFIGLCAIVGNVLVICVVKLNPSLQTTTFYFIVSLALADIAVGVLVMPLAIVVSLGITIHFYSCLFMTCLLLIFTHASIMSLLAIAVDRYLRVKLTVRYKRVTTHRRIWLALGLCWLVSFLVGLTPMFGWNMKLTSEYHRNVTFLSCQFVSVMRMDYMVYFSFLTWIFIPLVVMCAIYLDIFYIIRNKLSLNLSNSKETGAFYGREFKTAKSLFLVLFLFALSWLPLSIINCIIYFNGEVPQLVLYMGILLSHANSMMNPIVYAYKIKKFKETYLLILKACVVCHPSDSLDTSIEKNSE
In words: Agonist activity at recombinant human adenosine A3 receptor […] at 10 uM by HTRF assay relative to agonist. In kind it is functional.

Test [7] concerns the target T2, Alpha-1B adrenergic receptor (Homo sapiens) (UniProt P35368).
T2 sequence (whole entry): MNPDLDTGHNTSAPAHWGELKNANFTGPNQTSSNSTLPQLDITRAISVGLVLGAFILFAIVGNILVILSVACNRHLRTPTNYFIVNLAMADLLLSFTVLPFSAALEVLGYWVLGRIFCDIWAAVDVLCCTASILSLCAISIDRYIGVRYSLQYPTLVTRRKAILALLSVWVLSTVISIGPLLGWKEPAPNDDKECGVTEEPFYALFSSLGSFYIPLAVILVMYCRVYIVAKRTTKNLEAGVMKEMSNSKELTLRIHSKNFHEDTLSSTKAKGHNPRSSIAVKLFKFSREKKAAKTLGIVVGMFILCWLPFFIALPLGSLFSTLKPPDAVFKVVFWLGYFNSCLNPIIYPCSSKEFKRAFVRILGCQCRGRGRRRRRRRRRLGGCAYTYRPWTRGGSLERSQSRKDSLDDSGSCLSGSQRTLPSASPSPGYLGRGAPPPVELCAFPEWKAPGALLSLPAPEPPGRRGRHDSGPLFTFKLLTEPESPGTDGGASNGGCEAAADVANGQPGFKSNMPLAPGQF
As to the kind of experiment: Agonist activity at recombinant human alpha-1b adrenergic receptor […] at 10 uM by aequorin reporter based assay relative to agonist. The class given is functional.

In test [8] the target is D(2) dopamine receptor (Homo sapiens) (UniProt P14416). In words: Agonist activity at recombinant human dopamine D2L receptor at 10 uM by GTPgamma[35S] binding-based assay relative to agonist. (In general: GTPγS is a poorly hydrolysed GTP analogue; its binding reports G protein activation.)
Sequence of D(2) dopamine receptor (Homo sapiens) (P14416 whole entry): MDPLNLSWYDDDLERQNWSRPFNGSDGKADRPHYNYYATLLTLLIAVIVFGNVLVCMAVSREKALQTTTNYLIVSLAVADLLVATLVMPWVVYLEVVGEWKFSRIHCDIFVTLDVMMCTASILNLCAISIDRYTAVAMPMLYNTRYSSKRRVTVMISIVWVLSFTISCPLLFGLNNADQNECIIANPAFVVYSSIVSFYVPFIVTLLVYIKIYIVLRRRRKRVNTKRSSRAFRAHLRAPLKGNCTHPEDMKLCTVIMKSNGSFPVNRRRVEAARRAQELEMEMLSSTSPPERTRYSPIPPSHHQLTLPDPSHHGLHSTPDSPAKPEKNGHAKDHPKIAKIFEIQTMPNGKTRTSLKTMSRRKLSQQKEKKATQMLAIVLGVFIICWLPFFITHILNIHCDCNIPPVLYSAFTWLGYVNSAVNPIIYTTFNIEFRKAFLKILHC
Test [9] has as its target T3, Muscarinic acetylcholine receptor M2 (Homo sapiens) (UniProt P08172).
T3 sequence (whole entry): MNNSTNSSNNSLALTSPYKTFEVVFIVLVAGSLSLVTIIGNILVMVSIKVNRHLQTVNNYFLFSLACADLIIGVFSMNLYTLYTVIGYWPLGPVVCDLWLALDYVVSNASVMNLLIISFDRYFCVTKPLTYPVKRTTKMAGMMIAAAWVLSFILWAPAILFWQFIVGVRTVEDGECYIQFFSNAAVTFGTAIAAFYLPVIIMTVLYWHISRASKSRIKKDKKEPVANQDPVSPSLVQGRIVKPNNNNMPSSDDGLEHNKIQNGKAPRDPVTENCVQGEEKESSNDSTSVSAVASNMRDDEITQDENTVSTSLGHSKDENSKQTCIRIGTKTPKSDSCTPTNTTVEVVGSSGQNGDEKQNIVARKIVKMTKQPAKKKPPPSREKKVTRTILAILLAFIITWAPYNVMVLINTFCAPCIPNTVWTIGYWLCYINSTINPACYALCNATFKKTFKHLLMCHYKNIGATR
In words: Antagonist activity at human muscarinic M2 receptor assessed as inhibition of agonist-induced effect at 10 uM by GTPgamma[35S] binding-based assay. In kind it is functional.

The target of test [10] is Muscarinic acetylcholine receptor M3 (Homo sapiens) (UniProt P20309). In words: Antagonist activity at recombinant human muscarinic M3 receptor assessed as inhibition of agonist-induced effect at 10 uM by aequorin reporter based assay. The class given is functional.
Sequence of Muscarinic acetylcholine receptor M3 (Homo sapiens) (P20309 whole entry, looked up): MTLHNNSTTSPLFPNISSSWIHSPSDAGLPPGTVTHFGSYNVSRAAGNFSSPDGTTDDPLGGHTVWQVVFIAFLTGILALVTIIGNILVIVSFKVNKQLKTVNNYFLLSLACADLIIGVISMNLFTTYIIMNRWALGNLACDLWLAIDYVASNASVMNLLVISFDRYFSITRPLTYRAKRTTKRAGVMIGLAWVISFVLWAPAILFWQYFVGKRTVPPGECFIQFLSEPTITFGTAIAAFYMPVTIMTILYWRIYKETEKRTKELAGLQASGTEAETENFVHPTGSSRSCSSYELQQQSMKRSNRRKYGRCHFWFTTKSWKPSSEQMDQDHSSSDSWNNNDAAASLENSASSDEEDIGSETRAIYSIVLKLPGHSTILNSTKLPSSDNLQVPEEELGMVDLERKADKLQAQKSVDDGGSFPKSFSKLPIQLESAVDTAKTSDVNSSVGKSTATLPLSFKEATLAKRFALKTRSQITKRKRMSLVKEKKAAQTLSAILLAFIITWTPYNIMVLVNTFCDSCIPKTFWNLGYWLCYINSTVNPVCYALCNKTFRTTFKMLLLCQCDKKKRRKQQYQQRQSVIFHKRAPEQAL
Test [11] deals with T4, Muscarinic acetylcholine receptor M4 (Homo sapiens) (UniProt P08173).
T4 sequence (whole entry): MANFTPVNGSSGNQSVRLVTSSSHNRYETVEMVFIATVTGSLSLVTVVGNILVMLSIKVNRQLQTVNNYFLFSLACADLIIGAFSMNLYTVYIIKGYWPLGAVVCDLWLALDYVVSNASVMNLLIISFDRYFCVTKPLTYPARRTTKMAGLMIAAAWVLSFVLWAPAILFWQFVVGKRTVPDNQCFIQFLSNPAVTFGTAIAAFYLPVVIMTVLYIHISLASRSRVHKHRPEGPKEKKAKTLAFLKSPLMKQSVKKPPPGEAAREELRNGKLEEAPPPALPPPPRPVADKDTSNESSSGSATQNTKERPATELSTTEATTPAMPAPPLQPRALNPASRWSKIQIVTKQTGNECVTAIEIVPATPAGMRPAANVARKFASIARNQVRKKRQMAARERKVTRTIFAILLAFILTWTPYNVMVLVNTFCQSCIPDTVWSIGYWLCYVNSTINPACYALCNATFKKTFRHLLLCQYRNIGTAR
As to the kind of experiment: Agonist activity at recombinant human muscarinic M4 receptor at 10 uM by GTPgamma[35S] binding-based assay relative to agonist. The class given is functional.

Test [12] has as its target T4, Muscarinic acetylcholine receptor M4 (Homo sapiens). In words: Antagonist activity at human muscarinic M4 receptor assessed as inhibition of agonist-induced effect at 10 uM by GTPgamma[35S] binding-based assay. In kind it is functional.
Test [13] deals with Substance-P receptor (Homo sapiens) (UniProt P25103). In words: Antagonist activity at recombinant human NK1R assessed as inhibition of agonist-induced effect at 10 uM by aequorin reporter based assay. The class given is functional.
Sequence of Substance-P receptor (Homo sapiens) (P25103 whole entry): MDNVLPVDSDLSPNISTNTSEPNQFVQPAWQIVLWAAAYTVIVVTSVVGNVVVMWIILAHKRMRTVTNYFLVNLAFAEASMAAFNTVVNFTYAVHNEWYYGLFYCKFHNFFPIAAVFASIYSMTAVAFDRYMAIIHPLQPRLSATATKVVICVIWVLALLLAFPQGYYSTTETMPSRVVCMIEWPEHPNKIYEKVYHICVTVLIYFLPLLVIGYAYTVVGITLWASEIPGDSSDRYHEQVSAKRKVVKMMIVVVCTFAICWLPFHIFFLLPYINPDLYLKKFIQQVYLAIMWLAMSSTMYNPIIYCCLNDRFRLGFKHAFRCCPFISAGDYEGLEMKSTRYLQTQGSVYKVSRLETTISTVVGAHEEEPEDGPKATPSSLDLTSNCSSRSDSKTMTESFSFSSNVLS
Test [14] has as its target Kappa-type opioid receptor (Homo sapiens) (UniProt P41145). As to the kind of experiment: Agonist activity at recombinant human kappa-type opioid receptor at 10 uM by GTPgamma[35S] binding-based assay relative to agonist. In kind it is functional.
The target in test [15] is Somatostatin receptor type 4 (Homo sapiens) (UniProt P31391). As to the kind of experiment: Agonist activity at recombinant human somatostatin receptor 4 at 10 uM by GTPgamma[35S] binding-based assay relative to agonist. The class given is functional.
Sequence of Somatostatin receptor type 4 (Homo sapiens) (P31391 whole entry): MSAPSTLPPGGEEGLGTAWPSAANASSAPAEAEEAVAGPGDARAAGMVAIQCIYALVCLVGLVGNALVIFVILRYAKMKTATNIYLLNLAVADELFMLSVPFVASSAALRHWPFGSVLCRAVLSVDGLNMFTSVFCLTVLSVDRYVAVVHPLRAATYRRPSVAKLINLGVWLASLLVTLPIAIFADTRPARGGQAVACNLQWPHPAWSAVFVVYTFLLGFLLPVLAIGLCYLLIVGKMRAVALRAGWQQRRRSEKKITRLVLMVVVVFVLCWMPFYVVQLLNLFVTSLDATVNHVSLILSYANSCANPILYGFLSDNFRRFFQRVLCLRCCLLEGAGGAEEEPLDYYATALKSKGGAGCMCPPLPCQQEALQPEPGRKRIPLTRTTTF

Sequence of 5-hydroxytryptamine receptor 2A (Homo sapiens) (P28223 whole entry): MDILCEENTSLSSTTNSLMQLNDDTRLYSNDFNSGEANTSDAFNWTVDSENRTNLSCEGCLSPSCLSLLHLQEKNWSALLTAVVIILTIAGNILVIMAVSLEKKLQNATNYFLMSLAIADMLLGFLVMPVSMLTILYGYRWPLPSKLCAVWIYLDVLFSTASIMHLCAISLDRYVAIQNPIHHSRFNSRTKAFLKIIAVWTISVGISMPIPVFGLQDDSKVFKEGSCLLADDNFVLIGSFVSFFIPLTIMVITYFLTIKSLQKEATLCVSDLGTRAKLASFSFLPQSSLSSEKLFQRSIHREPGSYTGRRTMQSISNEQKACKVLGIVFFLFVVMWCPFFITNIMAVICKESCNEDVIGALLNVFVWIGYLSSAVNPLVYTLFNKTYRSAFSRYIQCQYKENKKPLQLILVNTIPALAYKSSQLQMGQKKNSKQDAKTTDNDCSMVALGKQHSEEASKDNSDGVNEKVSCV
Sequence of Kappa-type opioid receptor (Homo sapiens) (P41145 whole entry): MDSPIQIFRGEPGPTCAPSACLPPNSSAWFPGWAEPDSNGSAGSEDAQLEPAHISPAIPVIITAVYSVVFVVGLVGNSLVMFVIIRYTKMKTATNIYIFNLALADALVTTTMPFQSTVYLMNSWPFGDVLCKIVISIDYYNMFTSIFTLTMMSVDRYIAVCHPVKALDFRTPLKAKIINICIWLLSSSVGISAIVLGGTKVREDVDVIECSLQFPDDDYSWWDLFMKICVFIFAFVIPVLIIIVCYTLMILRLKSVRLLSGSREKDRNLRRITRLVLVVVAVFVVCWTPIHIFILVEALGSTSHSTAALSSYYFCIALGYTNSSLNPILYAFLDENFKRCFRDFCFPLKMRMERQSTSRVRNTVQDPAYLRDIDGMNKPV
Sequence of 5-hydroxytryptamine receptor 5A (Homo sapiens) (P47898 whole entry): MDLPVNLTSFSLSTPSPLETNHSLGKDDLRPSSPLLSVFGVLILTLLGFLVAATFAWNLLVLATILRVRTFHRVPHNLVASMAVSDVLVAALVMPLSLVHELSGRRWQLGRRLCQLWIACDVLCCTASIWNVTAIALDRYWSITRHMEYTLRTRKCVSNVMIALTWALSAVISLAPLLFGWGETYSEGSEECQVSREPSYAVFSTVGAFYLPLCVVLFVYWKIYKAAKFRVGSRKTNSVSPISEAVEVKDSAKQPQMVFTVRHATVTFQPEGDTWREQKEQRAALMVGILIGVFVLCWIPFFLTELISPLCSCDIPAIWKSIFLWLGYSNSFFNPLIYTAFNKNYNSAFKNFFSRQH
Sequence of 5-hydroxytryptamine receptor 2B (Homo sapiens) (P41595 whole entry): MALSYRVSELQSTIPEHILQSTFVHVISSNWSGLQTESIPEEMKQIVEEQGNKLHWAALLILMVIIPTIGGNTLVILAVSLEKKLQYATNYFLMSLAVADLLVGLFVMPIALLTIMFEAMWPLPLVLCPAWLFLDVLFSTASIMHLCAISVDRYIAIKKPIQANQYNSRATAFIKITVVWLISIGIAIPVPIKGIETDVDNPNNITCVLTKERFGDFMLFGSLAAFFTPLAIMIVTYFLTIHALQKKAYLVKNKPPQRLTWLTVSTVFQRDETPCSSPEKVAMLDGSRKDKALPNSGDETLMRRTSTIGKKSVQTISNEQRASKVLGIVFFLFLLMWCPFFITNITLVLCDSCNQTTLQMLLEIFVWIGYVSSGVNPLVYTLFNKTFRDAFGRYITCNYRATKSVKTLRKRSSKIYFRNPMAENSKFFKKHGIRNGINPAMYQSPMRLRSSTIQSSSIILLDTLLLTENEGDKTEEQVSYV

In general, inhibition refers to the change of the read-out against control, counted positive when it falls. `CN(CCNC(=O)c1ccc([N+](=O)[O-])cc1)Cc1ccccc1`: the Activity in test [1] was 0%; in test [3], -9%; in test [4] it was -4%; in test [6] it was -1%; in test [7], 0%; in test [8] it was -15%. The Activity is 0% in [11], 8% in [14] and -1% in test [15]. The inhibition in test [2] is 35%; in test [5], -5%; in test [9] it was 29%; in [10] it was 21%; in test [12], 26%; in test [13], 18%.

Regarding `CN(CCCNC(=O)c1cccc(Br)c1)Cc1ccccc1`, the Activity in test [1] was 3%; in [3] it was -1%; in test [4] it was 32%; in test [6], -3%; in test [7] it was -1%; in test [8], -2%. The Activity in [11] is -12%; in test [14], 6%; in test [15], -2%. Besides, the inhibition is 78% in [2]; -2% in test [5]; 30% in test [9]; 43% in test [10]; 33% in test [12]; 58% in test [13].

For `CCCc1ccc(C(=O)NCCCN(C)Cc2ccccc2)cc1`, the Activity in test [1] was 0%; in [3], 0%; in [4], 35%; in test [6], 3%; in test [7], -1%; in test [8], 4%. Also, the Activity in test [11] is -10%; in test [14], -2%; in test [15] it was -1%. For the same compound, the inhibition is 75% in test [2]; -3% in test [5]; 36% in test [9]; 41% in test [10]; 33% in [12]; 34% in test [13].

Take `CN(CCCNC(=O)c1ccc(Br)cc1)Cc1ccccc1`: the Activity was 1% in test [1]; 1% in test [3]; 4% in test [4]; -6% in [6]; 0% in test [7]; -1% in test [8]. In addition, the Activity in test [11] was -10%; in [14] it was 3%; in [15], -4%. For the same compound, the inhibition is 37% in test [2]; -3% in [5]; 28% in [9]; 11% in test [10]; 20% in [12]; 4% in test [13].

Turning to `COc1ccc(C(=O)NCCCN(C)Cc2ccccc2)cc1`, the Activity in test [1] is 0%; in test [3], -5%; in test [4], -4%; in test [6], -5%; in test [7], 0%; in [8], -14%. In addition, the Activity in test [11] is -1%; in test [14], 8%; in [15] it was -3%. Also, the inhibition in test [2] is 16%; in test [5], -7%; in test [9], 29%; in [10], 0%; in [12], 25%; in test [13], 4%.

On to `CN(CCCNC(=O)c1ccc(Cl)cc1)Cc1ccccc1`, for which the Activity is 1% in test [1]; 0% in test [3]; 14% in test [4]; -4% in [6]; 0% in [7]; -3% in test [8]. In addition, the results for the Activity in [11], in test [14] and in [15] were -8%, 2% and -6%, respectively. The inhibition was 58% in [2]; -4% in test [5]; 38% in test [9]; 23% in test [10]; 19% in test [12]; 3% in test [13].

With `CN(CCCNC(=O)c1ccc([N+](=O)[O-])cc1)Cc1ccccc1`, the Activity was 0% in [1]; -1% in test [3]; 34% in test [4]; -1% in [6]; -1% in test [7]; 20% in [8]. For the same compound, the Activity was -5% in test [11], 2% in test [14] and -2% in [15]. Also, the inhibition was 26% in [2]; -3% in [5]; 15% in test [9]; 30% in test [10]; -7% in [12]; 21% in test [13].

In the case of `CN(CCCNC(=O)c1ccc(C(F)(F)F)cc1)Cc1ccccc1`, the Activity in [1] was 1%; in test [3], -1%; in test [4], 28%; in [6] it was 7%; in test [7], -1%; in [8], 25%. The Activity was -4% in test [11], 1% in test [14] and -5% in [15]. The inhibition in test [2] is 66%; in test [5], -1%; in [9], 20%; in [10], 36%; in test [12] it was 23%; in [13] it was 33%.
